The nature of data set [1]: Solubility of the compound in minimal essential medium at 1 to 2 mg after 24 hrs in absence of 10% FCS by HPLC-UV based shake-flask method. It is filed as physicochemical. Conditions: BLD = below limit of detection.
Data set [2] in a line: Solubility of the compound in minimal essential medium at 1 to 2 mg after 24 hrs in presence of 10% FCS by HPLC-UV based shake-flask method. It is filed as physicochemical. The following applies: BLD = below limit of detection.
In another data set the test system is HeLa. Description: Cytotoxicity against human HeLa cells by MTT assay. It is filed as functional, cell-based.
Data set [3] is described as follows: Aqueous solubility of the compound in phosphate buffered saline at pH 6.8 after 24 hrs by HPLC-UV based shake-flask method. It is filed as physicochemical.
The nature of data set [4]: Intrinsic solubility of the compound at pH 2 by turbidimetric titration method. It is filed as physicochemical. Conditions: buffer, read-out: Intrinsic_solubility.
Data set [5] in a line: Aqueous solubility of the compound in phosphate buffered saline at pH 7.4 after 24 hrs by HPLC-UV based shake-flask method. It is filed as physicochemical.
The nature of data set [6]: Dissociation constant, pka of the compound by potentiometric titration method. It is filed as physicochemical.
Data set [7] can be described thus: Aqueous solubility of the compound in deionized water after 24 hrs by HPLC-UV based shake-flask method. Conditions: buffer. It is filed as physicochemical.
Data set [8] in a line: Solubility of the compound in water. It is filed as physicochemical. Conditions: buffer.
Where [9] appears, read: phosphate buffered saline, pH 6.8.
The mark [10] stands for this setting: phosphate buffered saline, pH 7.4.

Values after ≈ are worked out from the molar mass of the structure shown.

Consider `COc1cc2nc3n(c(=O)c2cc1OC)CCc1c-3[nH]c2ccccc12`, for which the solubility entry in data set [1] and in data set [2] was “Bld” throughout. In addition, the EC50 in the data set with HeLa came out at 60.8 µM.

Take `Cl.O=c1c2cc(O)ccc2nc2n1CCc1c-2n(CCCN2CCCCC2)c2ccccc12`: the values for the thermodynamic solubility at 24 h in data set [3] (setting [9]) and in data set [5] (setting [10]) were 1710 µM and 441 µM, respectively. In [4], the solubility amounted to 15.5 µM. The compound further gave a pKa in data set [6] of 8.8. In addition, the EC50 with HeLa came out at 15.4 µM.

Regarding `CCN(CC)CCCn1c2c(c3ccccc31)CCn1c-2nc2ccc(O)cc2c1=O.Cl`, the thermodynamic solubility at 24 h in data set [3] (setting [9]) worked out at 7400 µM; in [5] (setting [10]) it was 1900 µM. Also, the solubility in data set [4] turned out to be 53.2 µM. In addition, the pKa in data set [6] came to 8.94. This compound also returned an EC50 in the data set with HeLa of 9.8 µM.

As for `O=c1c2cc(O)ccc2nc2n1CCc1ccccc1-2`, it took 53.9 µM to reach a half-maximal effect in the data set with HeLa (EC50).

As to `O=c1c2cc(Cl)ccc2nc2n1CCc1ccccc1-2`, the solubility result in data set [1] and in data set [2] was “Bld” throughout. This compound also gave an EC50 in the data set on HeLa of 20.6 µM.

Turning to `O=c1c2sc3ccccc3c2nc2n1CCc1c-2[nH]c2ccccc12`, the solubility result in [1] and in [2] was “Bld” in each case. The EC50 in the data set with HeLa stood at 8.4 µM.

Take `O=c1c2sc3ncccc3c2nc2n1CCc1c-2[nH]c2ccccc12`: in the data set with HeLa, the EC50 worked out at 22.1 µM.

Consider `CCN(CC)CCCOc1ccc2nc3n(c(=O)c2c1)CCc1c-3[nH]c2ccccc12.Cl`, for which the solubility (thermodynamic) at 24 h is 180 µM in data set [3] (setting [9]) and 45.8 µM in data set [5] (setting [10]). Besides, the solubility in data set [4] came out at 0.7 µM. This compound also showed a pKa in [6] of 9.29. In the data set with HeLa, this compound registered an EC50 of 17.1 µM.

On to `O=c1c2ccccc2nc2n1CCc1ccccc1-2`, for which a half-maximal response in the data set on HeLa (EC50) required 64.2 µM. This counts as double-digit micromolar.

In turn, `O=c1c2cc(O)ccc2nc2n1CCc1c-2[nH]c2ccccc12` showed an EC50 in the data set with HeLa of 11.3 µM.

For `Cl.O=c1c2cc(OCCCN3CCCCC3)ccc2nc2n1CCc1c-2[nH]c2ccccc12`, the solubility entry in data set [1] was “Bld”; in data set [4] it was 0.21 µM; in [2], “Bld”. The thermodynamic solubility at 24 h stood at 21.8 µM in data set [3] (setting [9]) and 5.62 µM in [5] (setting [10]). Besides, the pKa in data set [6] was 9.36. For the same compound, the EC50 in the data set with HeLa turned out to be 16.3 µM.

`O=c1c2cc(Cl)ccc2nc2n1CCc1c-2[nH]c2ccccc12` had a 50% effective concentration (EC50) in the data set with HeLa of 7.2 µM.

`C=C1C(=O)O[C@@H]2C[C@@H](C)[C@@H]3C=CC(=O)[C@@]3(C)[C@@H](O)[C@H]12` [HELENALIN] yielded an EC50 in the data set on HeLa of 0.7 µM.

For `O=c1c2ccccc2nc2n1CCc1c-2[nH]c2ccccc12` [RUTAECARPINE], the solubility entry was “Bld” in [1], 0.0328 µM (≈ 9.42 ng/mL) in data set [7], “Bld” in data set [2] and 0.033 µM (≈ 9.48 ng/mL) in data set [8]. Further, the thermodynamic solubility at 24 h in [3] (buffer, pH 6.8, 24 h) was found to be 0.0257 µM (≈ 7.38 ng/mL); in data set [5] (buffer, pH 7.4, 24 h), 0.0271 µM (≈ 7.79 ng/mL). In the data set with HeLa, this compound showed an EC50 of 26.1 µM.

The record behind these values is ChEMBL document CHEMBL4043261, “Cytotoxic properties of the alkaloid rutaecarpine and its oligocyclic derivatives and chemical modifications to enhance water-solubility” (Bioorg Med Chem Lett, 2017).
